The values below come from patent publication US12479847B2 (DANA-FARBER CANCER INSTITUTE, INC., priority 2019, dated 2025).

What all share (assay): KINOMEscan (ScanMAX) kinase profiling
Holding throughout (format): binding

In assay [1] the target is T1, panel of 468 kinases (Homo sapiens, UniProt O95835).
T1 construct: purchased KINOMEscan (ScanMAX) service
T1 sequence (O95835 1-1130): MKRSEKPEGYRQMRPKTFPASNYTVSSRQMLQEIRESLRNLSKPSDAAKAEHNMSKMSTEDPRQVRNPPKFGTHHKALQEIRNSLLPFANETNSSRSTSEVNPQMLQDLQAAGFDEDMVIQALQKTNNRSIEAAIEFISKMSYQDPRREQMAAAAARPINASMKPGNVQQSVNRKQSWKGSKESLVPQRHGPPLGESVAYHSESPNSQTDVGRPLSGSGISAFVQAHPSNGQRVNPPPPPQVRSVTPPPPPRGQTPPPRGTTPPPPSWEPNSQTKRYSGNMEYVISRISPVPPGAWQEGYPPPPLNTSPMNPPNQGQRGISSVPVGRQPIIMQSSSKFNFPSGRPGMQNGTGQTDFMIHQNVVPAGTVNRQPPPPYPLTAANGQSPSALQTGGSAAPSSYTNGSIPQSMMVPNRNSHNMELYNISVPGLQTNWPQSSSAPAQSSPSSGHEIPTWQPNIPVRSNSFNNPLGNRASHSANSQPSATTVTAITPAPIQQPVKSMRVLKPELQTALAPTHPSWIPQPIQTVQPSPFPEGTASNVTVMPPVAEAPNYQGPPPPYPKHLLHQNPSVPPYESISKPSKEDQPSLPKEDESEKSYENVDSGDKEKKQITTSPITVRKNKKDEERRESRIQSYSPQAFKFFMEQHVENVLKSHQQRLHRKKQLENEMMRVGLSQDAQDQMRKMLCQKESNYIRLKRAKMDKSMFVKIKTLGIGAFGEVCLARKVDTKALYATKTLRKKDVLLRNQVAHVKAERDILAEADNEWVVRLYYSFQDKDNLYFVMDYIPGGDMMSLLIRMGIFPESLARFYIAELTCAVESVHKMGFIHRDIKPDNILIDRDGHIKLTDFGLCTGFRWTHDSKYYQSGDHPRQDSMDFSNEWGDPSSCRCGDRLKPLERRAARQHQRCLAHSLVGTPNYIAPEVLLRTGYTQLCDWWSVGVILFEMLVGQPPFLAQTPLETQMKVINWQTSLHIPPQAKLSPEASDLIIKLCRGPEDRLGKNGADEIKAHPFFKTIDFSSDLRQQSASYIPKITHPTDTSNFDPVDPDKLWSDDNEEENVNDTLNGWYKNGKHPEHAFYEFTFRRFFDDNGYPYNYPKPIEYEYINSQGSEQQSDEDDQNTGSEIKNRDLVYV
Conditions: LATS1; 1 μM; read-out: % control.

In assay [2] the target is T2, panel of 468 kinases (Homo sapiens, UniProt P00519, F317L).
T2 construct: purchased KINOMEscan (ScanMAX) service
T2 sequence (P00519 whole entry F317L): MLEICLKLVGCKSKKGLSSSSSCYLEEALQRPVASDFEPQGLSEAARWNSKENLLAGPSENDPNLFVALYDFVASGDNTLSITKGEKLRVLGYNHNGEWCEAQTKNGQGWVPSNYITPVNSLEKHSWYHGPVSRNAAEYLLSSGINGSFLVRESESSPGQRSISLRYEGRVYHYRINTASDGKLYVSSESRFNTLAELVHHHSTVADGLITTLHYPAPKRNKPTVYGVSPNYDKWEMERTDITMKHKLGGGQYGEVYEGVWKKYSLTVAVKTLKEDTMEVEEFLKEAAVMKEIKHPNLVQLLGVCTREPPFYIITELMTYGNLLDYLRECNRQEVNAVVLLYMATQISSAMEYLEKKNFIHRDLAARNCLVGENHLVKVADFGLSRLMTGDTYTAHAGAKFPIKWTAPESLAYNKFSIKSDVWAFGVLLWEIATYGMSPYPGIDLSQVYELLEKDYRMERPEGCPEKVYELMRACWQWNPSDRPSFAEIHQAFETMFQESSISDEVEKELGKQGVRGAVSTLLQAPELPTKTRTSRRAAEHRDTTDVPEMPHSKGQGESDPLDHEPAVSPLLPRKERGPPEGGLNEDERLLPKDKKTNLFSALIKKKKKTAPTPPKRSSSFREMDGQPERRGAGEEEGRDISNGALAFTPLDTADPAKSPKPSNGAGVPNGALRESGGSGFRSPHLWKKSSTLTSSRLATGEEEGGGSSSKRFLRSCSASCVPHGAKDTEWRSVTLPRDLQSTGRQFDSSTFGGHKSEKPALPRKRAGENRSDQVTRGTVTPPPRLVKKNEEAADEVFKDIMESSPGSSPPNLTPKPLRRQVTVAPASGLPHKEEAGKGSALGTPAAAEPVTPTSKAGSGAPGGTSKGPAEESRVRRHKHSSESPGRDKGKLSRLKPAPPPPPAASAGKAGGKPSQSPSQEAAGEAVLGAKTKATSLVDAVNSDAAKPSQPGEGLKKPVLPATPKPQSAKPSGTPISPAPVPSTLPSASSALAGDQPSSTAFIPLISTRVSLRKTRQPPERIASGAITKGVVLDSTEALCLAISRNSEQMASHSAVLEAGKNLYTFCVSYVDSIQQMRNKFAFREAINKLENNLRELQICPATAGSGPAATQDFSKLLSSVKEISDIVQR
Conditions: 1 μM, read-out: % control.

For assay [3], the target named is T3, panel of 468 kinases (Homo sapiens, UniProt P29323).
T3 construct: purchased KINOMEscan (ScanMAX) service
T3 sequence (P29323 19-1055): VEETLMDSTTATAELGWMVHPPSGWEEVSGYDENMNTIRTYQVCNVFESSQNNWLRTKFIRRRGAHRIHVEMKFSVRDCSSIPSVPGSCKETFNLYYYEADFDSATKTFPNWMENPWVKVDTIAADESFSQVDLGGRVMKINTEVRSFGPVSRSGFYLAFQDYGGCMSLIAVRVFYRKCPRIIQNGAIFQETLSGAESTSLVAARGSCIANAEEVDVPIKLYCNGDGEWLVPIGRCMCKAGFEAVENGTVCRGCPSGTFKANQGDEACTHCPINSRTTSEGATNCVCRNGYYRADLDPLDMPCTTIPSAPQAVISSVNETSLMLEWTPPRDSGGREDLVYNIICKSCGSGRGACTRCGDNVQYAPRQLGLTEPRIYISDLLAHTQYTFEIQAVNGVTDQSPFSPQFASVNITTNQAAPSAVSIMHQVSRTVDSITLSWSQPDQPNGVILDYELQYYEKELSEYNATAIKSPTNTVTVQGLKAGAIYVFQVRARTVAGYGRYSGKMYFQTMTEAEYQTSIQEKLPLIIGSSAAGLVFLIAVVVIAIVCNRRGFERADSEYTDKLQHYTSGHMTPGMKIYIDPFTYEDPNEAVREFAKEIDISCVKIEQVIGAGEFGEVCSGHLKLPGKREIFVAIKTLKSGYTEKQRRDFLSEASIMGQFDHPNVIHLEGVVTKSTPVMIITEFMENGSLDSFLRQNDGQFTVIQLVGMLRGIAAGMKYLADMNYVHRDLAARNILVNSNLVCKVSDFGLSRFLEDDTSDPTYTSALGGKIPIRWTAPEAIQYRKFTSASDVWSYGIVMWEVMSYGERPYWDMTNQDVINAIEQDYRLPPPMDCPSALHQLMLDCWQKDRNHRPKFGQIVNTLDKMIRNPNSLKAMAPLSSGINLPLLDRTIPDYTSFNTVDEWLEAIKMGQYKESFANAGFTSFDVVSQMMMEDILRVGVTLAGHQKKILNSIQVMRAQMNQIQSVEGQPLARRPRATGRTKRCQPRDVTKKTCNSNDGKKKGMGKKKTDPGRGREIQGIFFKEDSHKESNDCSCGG
Conditions: EPHB2; 1 μM; read-out: % control.

The target in assay [4] is T4, panel of 468 kinases (Homo sapiens, UniProt P42336, H1047Y).
T4 construct: purchased KINOMEscan (ScanMAX) service
T4 sequence (P42336 whole entry H1047Y): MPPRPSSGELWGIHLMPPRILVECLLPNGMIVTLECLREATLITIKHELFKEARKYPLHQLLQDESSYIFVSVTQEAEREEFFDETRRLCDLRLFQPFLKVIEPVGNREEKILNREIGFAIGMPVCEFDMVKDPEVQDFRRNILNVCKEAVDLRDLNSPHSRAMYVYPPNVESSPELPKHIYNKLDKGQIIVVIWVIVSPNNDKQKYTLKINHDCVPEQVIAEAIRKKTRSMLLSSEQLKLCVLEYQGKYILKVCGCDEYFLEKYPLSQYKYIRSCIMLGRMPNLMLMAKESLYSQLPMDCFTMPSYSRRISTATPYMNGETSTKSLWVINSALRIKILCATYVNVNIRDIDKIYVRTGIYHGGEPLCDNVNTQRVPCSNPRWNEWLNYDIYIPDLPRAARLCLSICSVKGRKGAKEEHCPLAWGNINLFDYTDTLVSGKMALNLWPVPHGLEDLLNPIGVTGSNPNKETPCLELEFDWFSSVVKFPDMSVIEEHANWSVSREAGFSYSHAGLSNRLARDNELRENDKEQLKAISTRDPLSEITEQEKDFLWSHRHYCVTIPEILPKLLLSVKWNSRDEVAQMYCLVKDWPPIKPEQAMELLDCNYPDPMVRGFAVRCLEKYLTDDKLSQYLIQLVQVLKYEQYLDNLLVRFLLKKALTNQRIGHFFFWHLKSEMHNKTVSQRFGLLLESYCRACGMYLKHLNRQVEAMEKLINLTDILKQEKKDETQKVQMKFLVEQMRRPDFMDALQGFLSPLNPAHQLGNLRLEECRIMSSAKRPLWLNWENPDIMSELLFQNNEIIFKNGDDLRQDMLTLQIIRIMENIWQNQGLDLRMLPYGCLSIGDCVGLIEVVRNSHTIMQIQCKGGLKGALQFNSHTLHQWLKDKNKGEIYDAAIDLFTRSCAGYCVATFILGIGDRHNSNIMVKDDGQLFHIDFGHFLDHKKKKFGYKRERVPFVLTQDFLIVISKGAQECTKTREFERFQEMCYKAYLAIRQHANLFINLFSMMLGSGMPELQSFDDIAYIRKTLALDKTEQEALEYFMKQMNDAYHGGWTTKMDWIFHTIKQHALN
Conditions: PIK3CA(H1047Y); 1 μM; read-out: % control.

Assay [5] concerns the target T5, panel of 468 kinases (Homo sapiens, UniProt P78368).
T5 construct: purchased KINOMEscan (ScanMAX) service
Conditions: CSNK1G2; 1 μM; read-out: % control.

The target of assay [6] is T6, panel of 468 kinases (Homo sapiens, UniProt Q15349).
T6 construct: purchased KINOMEscan (ScanMAX) service
T6 sequence (Q15349 whole entry): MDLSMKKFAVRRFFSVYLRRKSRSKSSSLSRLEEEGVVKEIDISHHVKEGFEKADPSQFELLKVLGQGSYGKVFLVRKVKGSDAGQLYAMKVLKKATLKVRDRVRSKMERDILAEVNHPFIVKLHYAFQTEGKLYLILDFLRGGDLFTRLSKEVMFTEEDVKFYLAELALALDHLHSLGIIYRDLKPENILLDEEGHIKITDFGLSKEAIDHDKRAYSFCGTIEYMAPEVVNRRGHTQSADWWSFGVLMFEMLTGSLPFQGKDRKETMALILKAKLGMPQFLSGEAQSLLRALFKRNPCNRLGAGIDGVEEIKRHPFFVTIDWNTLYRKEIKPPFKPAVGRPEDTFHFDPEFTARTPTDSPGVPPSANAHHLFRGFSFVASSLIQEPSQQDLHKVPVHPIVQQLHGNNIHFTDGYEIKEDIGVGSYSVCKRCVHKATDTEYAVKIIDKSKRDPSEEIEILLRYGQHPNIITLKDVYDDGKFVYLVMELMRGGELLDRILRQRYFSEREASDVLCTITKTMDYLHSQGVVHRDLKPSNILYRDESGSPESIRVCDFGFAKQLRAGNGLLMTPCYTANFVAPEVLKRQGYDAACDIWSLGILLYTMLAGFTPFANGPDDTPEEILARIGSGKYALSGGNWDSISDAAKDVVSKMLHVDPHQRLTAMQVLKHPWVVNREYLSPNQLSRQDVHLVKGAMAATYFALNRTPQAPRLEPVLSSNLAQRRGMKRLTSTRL
Conditions: 1 μM, read-out: % control.

Assay [7] addresses T7, panel of 468 kinases (Homo sapiens, UniProt Q9H3Y6).
T7 construct: purchased KINOMEscan (ScanMAX) service
Conditions: SRMS; 1 μM; read-out: % control.

Like-named read-outs stand apart in the source and are kept apart here.

T5 sequence (P78368 whole entry): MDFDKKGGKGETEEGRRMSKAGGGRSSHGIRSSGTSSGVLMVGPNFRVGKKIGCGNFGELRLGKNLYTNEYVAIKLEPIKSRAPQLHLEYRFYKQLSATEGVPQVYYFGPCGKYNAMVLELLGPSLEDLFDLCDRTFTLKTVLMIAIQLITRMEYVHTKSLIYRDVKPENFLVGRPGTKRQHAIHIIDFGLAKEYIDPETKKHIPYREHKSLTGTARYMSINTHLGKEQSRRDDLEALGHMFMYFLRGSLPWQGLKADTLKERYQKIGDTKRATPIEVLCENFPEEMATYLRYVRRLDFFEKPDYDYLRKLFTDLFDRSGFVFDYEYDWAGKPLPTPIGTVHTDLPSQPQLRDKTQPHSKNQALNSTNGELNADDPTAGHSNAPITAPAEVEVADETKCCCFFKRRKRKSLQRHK
T7 sequence (Q9H3Y6 whole entry): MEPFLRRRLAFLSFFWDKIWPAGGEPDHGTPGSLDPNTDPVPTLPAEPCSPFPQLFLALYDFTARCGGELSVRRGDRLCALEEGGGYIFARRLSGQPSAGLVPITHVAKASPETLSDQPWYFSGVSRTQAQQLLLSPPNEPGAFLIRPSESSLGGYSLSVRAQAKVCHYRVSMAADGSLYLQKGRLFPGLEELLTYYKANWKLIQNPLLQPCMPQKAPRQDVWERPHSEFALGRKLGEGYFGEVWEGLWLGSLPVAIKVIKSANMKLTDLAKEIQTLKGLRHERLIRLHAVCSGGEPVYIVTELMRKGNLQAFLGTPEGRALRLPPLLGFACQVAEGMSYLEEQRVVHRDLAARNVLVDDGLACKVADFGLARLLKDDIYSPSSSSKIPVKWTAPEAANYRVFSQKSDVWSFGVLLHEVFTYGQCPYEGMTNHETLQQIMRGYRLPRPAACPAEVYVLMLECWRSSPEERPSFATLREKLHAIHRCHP

Take `CNc1nc(Nc2ccc(S(=O)(=O)N3CCC(N4CCOCC4)CC3)cc2OC)nc2[nH]cc(Cl)c12` [Compound 12, 5-chloro-N2-(2-methoxy-4-((4-morpholinopiperidin-1-yl)sulfonyl)phenyl)-N4-methyl-7H-pyrrolo[2,3-d]pyrimidine-2,4-diamine]: the remaining binding at 1 µM at panel of 468 kinases [1] is 100%; on panel of 468 kinases [2] (ABL1(F317L)-nonphosphorylated), 100%; at panel of 468 kinases [2] (ABL1(F317L)-phosphorylated), 70%; at panel of 468 kinases [3] it was 100%; at panel of 468 kinases [4], 64%; at panel of 468 kinases [5], 63%. Further, the remaining binding at 1 µM on panel of 468 kinases [6] (RSK3(Kin.Dom.1-N-terminal)) stood at 100%; on panel of 468 kinases [6] (RSK3(Kin.Dom.2-C-terminal)), 70%; at panel of 468 kinases [7], 66%.

With `CNc1nc(Nc2ccc(C(=O)N3CCC(N4CCOCC4)CC3)c3c2OCO3)nc2[nH]cc(Cl)c12` [Compound 75, (7-((5-chloro-4-(methylamino)-7H-pyrrolo[2,3-d]pyrimidin-2-yl)amino)benzo[d][1,3]dioxol-4-yl)(4-morpholinopiperidin-1-yl)methanone], the remaining binding at 1 µM turned out to be 100% on panel of 468 kinases [1]; 100% on panel of 468 kinases [2] (ABL1(F317L)-nonphosphorylated); 47% at panel of 468 kinases [2] (ABL1(F317L)-phosphorylated); 100% on panel of 468 kinases [3]; 68% at panel of 468 kinases [4]; 2.9% at panel of 468 kinases [5]. In addition, the remaining binding at 1 µM at panel of 468 kinases [6] (RSK3(Kin.Dom.1-N-terminal)) was 100%; at panel of 468 kinases [6] (RSK3(Kin.Dom.2-C-terminal)) it was 57%; at panel of 468 kinases [7] it was 70%.

For `CNc1nc(Nc2ccc(P3(=O)CCN(C4CCOCC4)CC3)cc2OC)nc2[nH]cc(Cl)c12` [Compound 77, 4-(4-((5-chloro-4-(methylamino)-7H-pyrrolo[2,3-d]pyrimidin-2-yl)amino)-3-methoxyphenyl)-1-(tetrahydro-2H-pyran-4-yl)-1,4-azaphosphinane 4-oxide], the remaining binding at 1 µM was found to be 100% on panel of 468 kinases [1]; 100% at panel of 468 kinases [2] (ABL1(F317L)-nonphosphorylated); 54% on panel of 468 kinases [2] (ABL1(F317L)-phosphorylated); 100% on panel of 468 kinases [3]; 73% at panel of 468 kinases [4]; 96% at panel of 468 kinases [5]. For the same compound, the remaining binding at 1 µM on panel of 468 kinases [6] (RSK3(Kin.Dom.1-N-terminal)) is 100%; at panel of 468 kinases [6] (RSK3(Kin.Dom.2-C-terminal)), 20%; on panel of 468 kinases [7], 64%.
